Patent publication US7226730B1, “Transgenic animals and cell lines for screening drugs effective for the treatment or prevention of Alzheimer's Disease” (The General Hospital Corporation, priority 1997, dated 2007)

Tested on: CYZ neuronal cells stably transfected with AD7c-NTP
Assay: Crystal Violet viability assay in IPTG-induced AD7c-NTP expressing neuronal cells
Conditions: for effect on cell death (percent change in viability, induced over uninduced) / effect on nitric oxide synthase toxicity attributable to AD7c-NTP expression: CYZ cells induced to express AD7c-NTP, FIG. 12; for cell viability under oxidative stress toxins: LacB and LacF cells, 3 mM IPTG 24 or 48 hrs, toxin 6 or 24 hrs, vs LacA-control, FIGS. 10A and 10B
Method: AD7c-NTP was cloned into a Lac-Switch expression vector (Stratgene), and CYZ neuronal cells were stably transformed with the construct. Several cell lines were selected that expressed AD7c-NTP at various levels, Lac A-Lac F, after induction of protein expression with IPTG.
Briefly, 10^4 cells/well were seeded into 96-well plates, and were induced to express AD7c-NTP for a period of 6–18 hrs; additionally, in some experiments, cells were exposed to toxins or protective agents for a similar period of time. At the end the treatment period, cells were fixed, permeabilized and immunostained with the appropriate antibody following the ABS procedure. Quantitation was done by incubating cells with a soluble chromagen, stopping the reaction with 2M H2SO4 and determining chromagen absorbance in an automated ELISA reading machine.
For Experiments determining cell viability, after culture and treatment as for the MICE assay, culture media was replaced with a Crystal Violet/PBS/formalin solution. After staining, cells were rinsed thoroughly and lysed with a PBS/1% SDS solution, and absorbance was determined with an automated ELSA reader. Results were graphed as percent viability.

SMILES | effect on cell death (percent change in viability, induced over uninduced) | cell viability under oxidative stress toxins | effect on nitric oxide synthase toxicity attributable to AD7c-NTP expression
OO [Hydrogen peroxide] | exacerbate cell death | increased hypersensitivity | 
N=C(N)NCCC[C@H](N)C(=O)O [L-arginine] |  |  | inhibit or reduce
CCN(CC)C(=S)S [diethyldithiocarbamic acid] | exacerbate cell death | increased hypersensitivity | 
COC(=O)[C@@H](N)CCCNC(=N)N[N+](=O)[O-] [L-NAME] |  |  | inhibit or reduce
